Data: US20150038435A1, “N-TERMINALLY MODIFIED OLIGOPEPTIDES AND USES THEREOF” (Novo Nordisk A/S, priority 2012, published 2015)
*: point of attachment. Lauroyl = CCCCCCCCCCCC(=O)*

Key:
Chymotrypsin = assay: Inhibition of enzymatic degradation of a model GLP-1 (FRET substrate) by chymotrypsin; assay type: biochemical; conditions: compound 0.1 mM, buffer containing 8% DMSO
Excerpt: (§1) The use of Förster resonance energy transfer (FRET), also known as fluorescence resonance energy transfer, substrates to monitor activity of proteolytic enzymes is known in the field (for example Anjuere, F. et al. (1993). Biochem J 291 (Pt 3), 869-73).
(§2) Model GLP-1 analogue was designed as FRET substrate by incorporation of 7-Methoxycoumarin-4-acetic acid (MCA) group as the donor chromophore and dinitrophenol group (DNP) as the acceptor chromophore.
(§3) An assay following the increase in fluorescence as a function of time was established in 96 well format using Varioskan Flash Multimode Meter (Thermo Scientific). Each well contained 70 μl of Dulbecco's phosphate buffer saline (Invitrogen catalogue #14190-094), 10 μl of 100 μM GLP-1 FRET substrate, 10 μl of N-terminally acylated peptide or oligopeptide of the invention in varying concentration and 10 μl of a stock solution of an enzyme (chymotrypsin, trypsin, elastase, etc.). The incubations were performed at 37° C. Fluorescence (320 nm excitation wavelength and 405 nm emission wavelength) was measured immediately after addition of the enzyme to the 96 well plate and also every minute for at least the next 30 minutes. The concentration of the enzyme was optimized to allow determination of slopes for the time course of initial fluorescence increase with and without the N-terminally acylated peptides or oligopeptides of the invention. The slopes were determined by linear regression of the linear part of the fluorescence trace (for example, the first 10 min of the reaction). Each assay was performed in duplicate and average of the two traces was included in the calculations. The relative effect of N-terminally acylated peptide or oligopeptides of the invention on enzymatic degradation of GLP-1 FRET substrate was obtained by comparison of the slopes achieved by the same concentration of the N-terminally acylated peptide or oligopeptides. […] This was done by plotting the slopes achieved with different concentrations of the N-terminally acylated peptide or oligopeptides of the invention as a function of their concentrations and fitting the experimental results using, for example, sigmoidal logistic regression (2 parameters, Sigma Plot v 11). Inhibition constants for the interaction between the N-terminally acylated peptide or oligopeptides of the invention and proteolytic enzymes were also obtained by performing the assay described above with varying concentrations of the inhibitor and substrate and analyzing the results, for example, by double reciprocal transformation as known to the person skilled in the art and described for example in Hubalek, F. et al., J. Med. Chem. 47, 1760-1766 (2004).
(§4) The EC50 was determined for the following compounds. EC50±standard error is reported if the results of at least 3 independent measurements were available.

Trypsin = assay: Inhibition of enzymatic degradation of a model GLP-1 (FRET substrate) by trypsin; assay type: biochemical; conditions: compound 0.1 mM, buffer containing 8% DMSO
Excerpt: as §1, §2, §3, §4

[1] = Hydrophobicity: retention time during reverse phase HPLC; assay type: physicochemical; conditions: Acquity CSH C18; pH 7.2 buffer/CH3CN gradient; 40° C.
Excerpt: The retention time (RT) during reverse phase HPLC was taken as a measure of hydrophobicity of an N-terminally modified peptide or oligopeptide of the invention, where the connection is: The longer the RT, the more hydrophobic N-terminally modified peptide or oligopeptide. The following running conditions were applied during HPLC analysis:
Buffer B: 70% (v/v) aq. CH3CN

Row | Substance | Slope of the initial increase in fluorescence obtained during incubation with 0.001 mg/ml Chymotrypsin (Chymotrypsin) | Slope of the initial increase in fluorescence obtained during incubation with 0.001 mg/ml Trypsin (Trypsin) | RT (retention time during reverse phase HPLC as a measure of hydrophobicity) [1] [min]
1 | N-dodecanoyl-Ala-Ala-Ile-Tyr-OH (Lauroyl-AAIY-OH; SMILES CCCCCCCCCCCC(=O)N[C@@H](C)C(=O)N[C@@H](C)C(=O)N[C@H](C(=O)N[C@@H](Cc1ccc(O)cc1)C(=O)O)[C@@H](C)CC) [Example 65] | 2.04 | 1.60 | 3.12
2 | N-dodecanoyl-Phe-Pro-Tyr-OH [Example 124] | 0.12 | 0.63 | 8.19
3 | N-dodecanoyl-Ala-Ala-His-Tyr-OH (Lauroyl-AAHY-OH; SMILES CCCCCCCCCCCC(=O)N[C@@H](C)C(=O)N[C@@H](C)C(=O)N[C@@H](Cc1c[nH]cn1)C(=O)N[C@@H](Cc1ccc(O)cc1)C(=O)O) [Example 64] | 1.23 | 2.23 | 5.33
4 | N-dodecanoyl-Ala-Glu-Pro-Tyr-OH (Lauroyl-AEPY-OH; SMILES CCCCCCCCCCCC(=O)N[C@@H](C)C(=O)N[C@@H](CCC(=O)O)C(=O)N1CCC[C@H]1C(=O)N[C@@H](Cc1ccc(O)cc1)C(=O)O) [Example 77] | 1.56 | 1.55 | 4.17
5 | N-dodecanoyl-Ala-Ala-Leu-Tyr-OH (Lauroyl-AALY-OH; SMILES CCCCCCCCCCCC(=O)N[C@@H](C)C(=O)N[C@@H](C)C(=O)N[C@@H](CC(C)C)C(=O)N[C@@H](Cc1ccc(O)cc1)C(=O)O) [Example 66] | 0.18 | 1.98 | 7.18
6 | N-dodecanoyl-Ala-Ala-Pro-Tyr-OH [Example 69] (Lauroyl-AAPY-OH; SMILES CCCCCCCCCCCC(=O)N[C@@H](C)C(=O)N[C@@H](C)C(=O)N1CCC[C@H]1C(=O)N[C@@H](Cc1ccc(O)cc1)C(=O)O) | 0.43 | 1.83 | 5.79
7 | N-dodecanoyl-Ala-Gln-Pro-Tyr-OH (Lauroyl-AQPY-OH; SMILES CCCCCCCCCCCC(=O)N[C@@H](C)C(=O)N[C@@H](CCC(N)=O)C(=O)N1CCC[C@H]1C(=O)N[C@@H](Cc1ccc(O)cc1)C(=O)O) [Example 76] | 0.85 | 2.22 | 5.26
8 | N-dodecanoyl-Ser-Pro-Tyr-OH [Example 107] | 0.89 | 1.99 | 5.58
9 | N-dodecanoyl-Ala-Leu-Pro-Tyr-OH (Lauroyl-ALPY-OH; SMILES CCCCCCCCCCCC(=O)N[C@@H](C)C(=O)N[C@@H](CC(C)C)C(=O)N1CCC[C@H]1C(=O)N[C@@H](Cc1ccc(O)cc1)C(=O)O) [Example 81] | 0.40 | 1.90 | 7.38
10 | N-dodecanoyl-Glu-Ala-Ala-Pro-Tyr-OH [Example 104] | 0.16 | 1.63 | 3.83
